{
  "source": "patent US20020019378A1",
  "about": "“COMPOUNDS” (priority 1997, published 2002)",
  "key": {"[1]": {"target": "human serum paraoxonase (Homo sapiens, UniProt P27169)", "sequence (P27169 whole entry)": "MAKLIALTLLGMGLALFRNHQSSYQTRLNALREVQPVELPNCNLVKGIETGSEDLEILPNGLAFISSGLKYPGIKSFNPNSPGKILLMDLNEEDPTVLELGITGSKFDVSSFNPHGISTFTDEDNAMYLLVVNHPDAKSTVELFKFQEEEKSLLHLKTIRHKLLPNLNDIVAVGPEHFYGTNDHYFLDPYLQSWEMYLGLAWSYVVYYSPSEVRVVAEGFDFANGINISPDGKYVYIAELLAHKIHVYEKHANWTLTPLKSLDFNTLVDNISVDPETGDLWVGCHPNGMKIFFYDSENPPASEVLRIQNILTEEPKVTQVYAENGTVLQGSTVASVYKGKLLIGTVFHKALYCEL", "test": "Hydrolysis by human serum paraoxonase (enzymatic hydrolysis test method)", "type": "in vitro ADME", "settings": "5% bovine serum albumin, 20 mM CaCl2, 37° C.", "procedure": "The compounds herein have relatively short half-lives in blood in vitro. A test method for determining the half-life of the compounds under defined enzymatic hydrolysis conditions in vitro is now described. The test method is believed to provide a suitable indicator as to effects in vivo. In the test method, the hydrolysis of test compounds by a lactonase enzyme is monitored using RP HPLC with UV detection.\nThe ‘enzymatic hydrolysis test method’ is as follows: Incubations are carried out in 1 ml volumes in an aqueous medium containing 5% bovine serum albumin in the presence of 20 mM CaCl2. The solutions are preincubated at 37° C. for 5 minutes before the addition of the test compound (5 μl of a 5 mg/ml solution in DMSO) and then lactonase enzyme (10 μl to the 1 ml incubations). Control incubations containing no enzyme are also included. The enzymatic hydrolysis is monitored by removal of aliquots and quenching the reaction by the addition of an equal volume of acetonitrile. The samples are vortex mixed, then centrifuged and the supernatants are transferred to autosampler vials for HPLC analysis.\nIn a suitable HPLC procedure, aliquots (20 μl) of the supernatants are injected onto a Zorbax Rx C8 column (250×4.6mm; Hichrom). The column is maintained at 40° C. and eluted at a flow rate of 1.0 mL/min with a mobile phase of acetonitrile: 50 mM ammonium formate (65:35) adjusted to pH 4.2 with formic acid. Detection is by UV absorbance at 240 nm, and chromatographic peak areas for both parent and metabolite are measured.\nIn a preferred aspect, the half-life of each compound may be determined by a method in which peak areas are plotted against time on a log-linear scale, and the half lives determined by extrapolation or interpolation of a straight line joining two points.\nThe above described ‘enzymatic hydrolysis test method’ employs lactonase enzyme. Suitable forms of lactonase enzyme include human serum paraoxonase or a recombinant form thereof, or purified lactonase, obtained from human plasma as described hereinafter. Purification of human serum paraoxonase is described by C E Furlong et al, Chem.Biol.Interactions, Vol 87, p35-48, (1993) and recombinant human serum paraoxonase is described in International Patent application No. WO 96/01322\nThe susceptibility to hydrolysis by human serum paraoxonase of certain of the compounds of the Examples was assessed using the test protocol of the ‘enzymatic hydrolysis test method’ described herein."}, "[2]": {"test": "Stability in human lung S9", "type": "in vitro ADME", "settings": "human lung S9 diluted 1:1 with phosphate buffer pH 7.4, NADPH, 37° C.", "procedure": "The stability of the compound of Examples 4 and 6 in a model human lung environment was assessed using the following test protocol: Incubations were carried out, at 37° C., in 500 μL volumes of human lung S9 diluted 1:1 with 10 mM phosphate buffer pH 7.4 to which was added 50 μl of 30 mg/ml (Aq) NADPH. The reactions were started by the addition of 5 μl of test compound (nominally 5 mg/ml solution in DMSO). Aliquots (100 μl) were removed immediately and after 1 hour and mixed with an equal volume of acetonitrile to stop the reaction. Samples were centrifuged and the supernatants were transferred to autosampler vials for HPLC analysis and half-life analysis using methods identical to those described in the ‘stability in human plasma’ test protocol described above. Control incubations containing no lung S9 were also included."}, "[3]": {"test": "Stability in human plasma test method", "type": "in vitro ADME", "settings": "37° C.", "procedure": "The stability of various of the compounds of the Examples in human plasma was tested using the following ‘stability in human plasma’ test method: 500 μl aliquots of human plasma in screw capped polypropylene tubes were preincubated at 37° C. in a waterbath for 5 minutes. The plasma samples were then spiked with 5 μl of test compound (nominally 5 mg/ml in DMSO). Aliquots (100 μl ) were removed immediately and after 5 minutes and mixed with an equal volume of acetonitrile. The samples were centrifuged and the supernatants were transferred to autosampler vials for HPLC and half-life analysis.\nIn the HPLC procedure, aliquots (20 μl) of all the supernatants were injected onto a Zorbax Rx C8 column (250×4.6mm; Hichrom). The column was maintained at 40° C. and eluted at a flow rate of 1.0 mL/min with a mobile phase of acetonitrile: 50 mM ammonium formate (65:35) adjusted to pH 4.2 with formic acid. Detection was by UV absorbance at 240 nm, and chromatographic peak areas for both parent and metabolite were measured\nTo determine the half-life, for each compound peak areas were plotted against time on a log-linear scale, and the half lives determined by extrapolation or interpolation of a straight line joining two points."}, "[4]": {"target": "T1, Human Glucocorticoid Receptor (Homo sapiens, UniProt P04150)", "T1 construct": "endogenous in cells; host or cells: HeLa cells stably transfected with an MMTV-LTR sPAP reporter", "T1 sequence (P04150 1-777)": "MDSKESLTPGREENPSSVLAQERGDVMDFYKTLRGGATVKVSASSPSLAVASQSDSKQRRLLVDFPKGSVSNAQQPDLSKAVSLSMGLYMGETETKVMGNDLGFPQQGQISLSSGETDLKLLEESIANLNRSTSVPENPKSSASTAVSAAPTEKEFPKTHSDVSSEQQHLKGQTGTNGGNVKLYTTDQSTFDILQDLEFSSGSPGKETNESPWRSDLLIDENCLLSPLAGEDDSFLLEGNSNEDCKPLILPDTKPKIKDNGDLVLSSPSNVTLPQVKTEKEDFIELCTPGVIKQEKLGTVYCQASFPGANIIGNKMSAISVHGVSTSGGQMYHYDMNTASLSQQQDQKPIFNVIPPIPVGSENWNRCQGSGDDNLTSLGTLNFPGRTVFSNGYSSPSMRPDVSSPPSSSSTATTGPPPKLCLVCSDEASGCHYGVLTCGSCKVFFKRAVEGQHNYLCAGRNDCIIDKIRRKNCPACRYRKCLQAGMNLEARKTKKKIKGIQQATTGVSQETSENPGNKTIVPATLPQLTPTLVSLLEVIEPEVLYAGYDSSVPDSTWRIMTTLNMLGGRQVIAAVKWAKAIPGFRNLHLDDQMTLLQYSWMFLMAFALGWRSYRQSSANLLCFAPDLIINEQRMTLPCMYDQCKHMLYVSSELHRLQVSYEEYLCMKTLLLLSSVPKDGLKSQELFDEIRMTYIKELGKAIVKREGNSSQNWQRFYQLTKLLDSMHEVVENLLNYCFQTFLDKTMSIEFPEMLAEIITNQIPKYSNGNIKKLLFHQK", "test": "Functional in vitro glucocorticoid activity assay: Hela cells stably transfected with sPAP reporter gene under MMTV LTR promoter", "type": "cell-based", "settings": "72 hours incubation, values given as 'less than (about)', read-out: EC50 (sPAP transcription, glucocorticoid activity)", "description": "The functional assay used was a modification of the method described by T. S Berger et al, of J. of Steroid Biochem. Molec. Biol. 1992, 41 (3-8), 733-738, “Interaction of Glucocorticoid analogues with the Human Glucocorticoid Receptor”. Thus, Hela cells were stably transfected with a detectable reporter gene (secreted placental alkaline phosphatase, sPAP) under the control of a glucocorticoid response promoter (the LTR of the mouse mammary tumour virus, MMTV). Various concentrations of standard (dexamethasone) or compounds of the invention were incubated with transfected Hela cells for 72 hours. At the end of the incubation, substrate ([…]) for sPAP was added and the product measured by a spectrophotometric method. Increased absorbance reflected increased sPAP transcription and concentration-response lines were constructed such that EC50-values could be estimated."}},
  "data": [
    {"smiles": "CC12CCC(=O)C=C1C(F)CC1C3CC4OC(CSC5CCOC5=O)OC4(C(=O)CO)C3(C)CC(O)C12F", "note": "(stereo not drawn) [Example 4, 6α,9α-Difluoro-11β,21-dihydroxy-16α, 17α-[2-(2-oxo-tetrahydro-furan-3-yl)sulfanyl]ethylidenedioxy-pregn-4-ene-3,20-dione]", "values": [
      {"measurement": "Hydrolysis by human serum paraoxonase", "setting": "[1]", "result": "hydrolysed"},
      {"measurement": "half-life at 45 µg/mL", "setting": "[2]", "result": "> 60", "unit": "min"},
      {"measurement": "half-life at 49.5 µg/mL", "setting": "[3]", "result": "< 10", "unit": "min"},
      {"measurement": "EC50", "setting": "[4]", "result": "< 250", "unit": "nM"}
    ]}
  ]
}
